Results on 50 compounds are retold here after article PMC11995724, “Antibiotic target discovery by integrated phenotypic and activity-based profiling of electrophilic fragments” (Cell chemical biology, 2025).

Where a name gives a salt, the structure may show the parent alone.

A word on the viability: it is a read-out of living cells in per cent, often relative to untreated cells.

This series in a line: in vitro. To be noted: human, hek293t cells.
For `COC(=O)c1ccc2[nH]cc(C(=O)CCl)c2c1` [10-D05, methyl 3-(2-chloroacetyl)-1H-indole-5-carboxylate], the viability at 48 h, 25 µM was 3.01%. As for `C=CC(=O)NC1CC(CC(F)(F)F)C1` (centres unmarked) [2-F09, N-[3-(2,2,2-trifluoroethyl)cyclobutyl]prop-2-enamide], the viability at 48 h, 25 µM stood at 65.5%. As to `C=CC(=O)N1CCOC(Cn2cncn2)C1` (centres unmarked) [1-F20, 1-{2-[(1H-1,2,4-triazol-1-yl)methyl]morpholin-4-yl}prop-2-en-1-one], the viability at 48 h, 25 µM stood at 85.3%.

For the compound `C=CC(=O)NCCC1COCCO1` (centres unmarked) [2-H15, N-[2-(1,4-dioxan-2-yl)ethyl]prop-2-enamide], the viability at 48 h, 25 µM amounted to 74.3%.

For `COc1ccc(C2CCCN2C(=O)CCl)cc1OC` (centres unmarked) [6-M03, 2-chloro-1-[2-(3,4-dimethoxyphenyl)pyrrolidin-1-yl]ethan-1-one], the viability at 48 h, 25 µM came out at 0.75%. For `C=CC(=O)NC12CC3(C)CC(C)(CC(O)(C3)C1)C2` [1-K17, N-(3-hydroxy-5,7-dimethyladamantan-1-yl)prop-2-enamide], the viability at 48 h, 25 µM is 85.3%. The result for `N#CCSc1ccccc1NC(=O)CCl` [6-C11, 2-chloro-N-{2-[(cyanomethyl)sulfanyl]phenyl}acetamide] reads 2.08%. On to `C=CC(=O)N1CCC(C(=O)NCCc2c(C)n[nH]c2C)CC1` [2-D04, N-[2-(3,5-dimethyl-1H-pyrazol-4-yl)ethyl]-1-(prop-2-enoyl)piperidine-4-carboxamide], for which the viability at 48 h, 25 µM stood at 88.7%.

Take `CCc1nocc1CN(C)C(=O)C(C)Cl` (centres unmarked) [7-M06, 2-chloro-N-[(3-ethyl-1,2-oxazol-4-yl)methyl]-N-methylpropanamide]: the viability at 48 h, 25 µM was 95.1%.

On to `Cc1ccc(C(=O)c2ccccc2)c(NC(=O)CCl)c1` [4-B19, N-(2-benzoyl-5-methylphenyl)-2-chloroacetamide], for which the viability at 48 h, 25 µM worked out at 0.105%. In the case of `Cc1ccccc1CN1CCC(NC(=O)CCl)CC1` [6-L08, 2-chloro-N-{1-[(2-methylphenyl)methyl]piperidin-4-yl}acetamide hydrochloride], the viability at 48 h, 25 µM turned out to be 113%. As to `C=CC(=O)N[C@H]1C[C@H](S(C)(=O)=O)C1` [3-D18, N-[(1r,3r)-3-methanesulfonylcyclobutyl]prop-2-enamide], the viability at 48 h, 25 µM worked out at 83.6%. With `Cc1n[nH]c(C)c1C=C(C#N)C(=O)Nc1cc(Cl)cc(Cl)c1` [8-M08, 2-cyano-N-(3,5-dichlorophenyl)-3-(3,5-dimethyl-1H-pyrazol-4-yl)prop-2-enamide], the viability at 48 h, 25 µM was determined as 58.6%. `Cc1ccc(C(=O)C(C)Cl)cc1` (centres unmarked) [10-F20, 2-chloro-1-(4-methylphenyl)propan-1-one]: the viability at 48 h, 25 µM turned out to be 80.5%. Take `CN(CC(=O)Nc1ccc(Cl)c(C(F)(F)F)c1)C(=O)CCl` [4-E19, 2-chloro-N-({[4-chloro-3-(trifluoromethyl)phenyl]carbamoyl}methyl)-N-methylacetamide]: the viability at 48 h, 25 µM was 0.379%.

`O=C(CCl)N1CCC(CCc2ccccc2)CC1` [6-G12, 2-chloro-1-[4-(2-phenylethyl)piperidin-1-yl]ethan-1-one]: the viability at 48 h, 25 µM is 1.05%. For `Cc1cc(C)cc(N(CCC#N)C(=O)CCl)c1` [5-P18, 2-chloro-N-(2-cyanoethyl)-N-(3,5-dimethylphenyl)acetamide], the viability at 48 h, 25 µM came out at 0.915%. For `C=CC(=O)N1C2C=C(c3nccn3C)CC1CC2` (centres unmarked) [3-G03, 1-[3-(1-methyl-1H-imidazol-2-yl)-8-azabicyclo[3.2.1]oct-2-en-8-yl]prop-2-en-1-one], the viability at 48 h, 25 µM was found to be 52.5%. On to `CCOC(=O)C1=C(C)NC(=O)N(C(=O)CCl)C1c1ccccc1` (centres unmarked) [5-I05, ethyl 3-(2-chloroacetyl)-6-methyl-2-oxo-4-phenyl-1,2,3,4-tetrahydropyrimidine-5-carboxylate], for which the viability at 48 h, 25 µM was found to be 44.7%. The result for `C=CC(=O)Nc1ccc(F)c(C(=O)CC)c1` [1-I22, N-(4-fluoro-3-propanoylphenyl)prop-2-enamide] reads 101%; that for `O=C(CCl)Nc1ccc(S(=O)(=O)Nc2ccccc2)cc1` [5-K22, 2-chloro-N-[4-(phenylsulfamoyl)phenyl]acetamide], 1.09%. Regarding `Cc1cc(C(=O)CCl)c(C)n1CCc1ccc(Cl)cc1` [10-N16, 2-chloro-1-{1-[2-(4-chlorophenyl)ethyl]-2,5-dimethyl-1H-pyrrol-3-yl}ethan-1-one], the viability at 48 h, 25 µM came to 0.625%.

On to `O=C(CCl)Nc1cc(Cl)c(Cl)cc1Cl` [4-B06, 2-chloro-N-(2,4,5-trichlorophenyl)acetamide], for which the viability at 48 h, 25 µM came to 0.135%.

As to `O=C(CCl)NCC1(c2ccccc2)CCOCC1` [6-I07, 2-chloro-N-[(4-phenyloxan-4-yl)methyl]acetamide], the viability at 48 h, 25 µM was found to be 89.3%. For the compound `CC(Cl)C(=O)NC(c1cccs1)c1cccs1` (centres unmarked) [6-L21, N-[bis(thiophen-2-yl)methyl]-2-chloropropanamide], the viability at 48 h, 25 µM was found to be 100%. Consider `COc1cccc([C@H]2C[C@H](N(C)C(=O)C(C)Cl)C2)c1` (some centres unmarked) [6-B17, 2-chloro-N-methyl-N-[(1r,3r)-3-(3-methoxyphenyl)cyclobutyl]propanamide], for which the viability at 48 h, 25 µM was 79.7%. To `Cn1cc(C(=O)CCl)cc1C(N)=O` [10-J06, 4-(2-chloroacetyl)-1-methyl-1H-pyrrole-2-carboxamide] belongs 1.55%; to `C=CC(=O)NCc1ccc(C(=O)N2CCN(c3nc(C)n[nH]3)CC2)cc1` [2-F22, N-({4-[4-(3-methyl-1H-1,2,4-triazol-5-yl)piperazine-1-carbonyl]phenyl}methyl)prop-2-enamide], 78.3%. Turning to `C=CC(=O)N1CCC(C(=O)NCc2ccccc2)CC1` [1-I05, N-benzyl-1-(prop-2-enoyl)piperidine-4-carboxamide], the viability at 48 h, 25 µM was 86.7%.

On to `Cc1ccc(-n2c(C)cc(C(=O)CCl)c2C)cc1F` [10-C06, 2-chloro-1-[1-(3-fluoro-4-methylphenyl)-2,5-dimethyl-1H-pyrrol-3-yl]ethan-1-one], for which the viability at 48 h, 25 µM was 0.213%.

As for `CC(Cl)C(=O)NC(c1cccc(C(F)(F)F)c1)c1nnc[nH]1` (centres unmarked) [7-M17, 2-chloro-N-[(4H-1,2,4-triazol-3-yl)[3-(trifluoromethyl)phenyl]methyl]propanamide], the viability at 48 h, 25 µM is 75.1%.

On to `C=CC(=O)N1CCCC1c1cn(C)nc1C` (centres unmarked) [3-M09, 1-[2-(1,3-dimethyl-1H-pyrazol-4-yl)pyrrolidin-1-yl]prop-2-en-1-one], for which the viability at 48 h, 25 µM stood at 50.9%. On to `CC(c1ccc(C(F)(F)F)c(Cl)c1)N(C)C(=O)CCl` (centres unmarked) [7-F14, 2-chloro-N-{1-[3-chloro-4-(trifluoromethyl)phenyl]ethyl}-N-methylacetamide], for which the viability at 48 h, 25 µM was 0.626%. As for `Cc1c(C#N)c(NC(=O)CCl)n(Cc2cccs2)c1C` [4-C04, 2-chloro-N-{3-cyano-4,5-dimethyl-1-[(thiophen-2-yl)methyl]-1H-pyrrol-2-yl}acetamide], the viability at 48 h, 25 µM was found to be 0.255%. As to `CC(=O)N(C)Cc1ccc(C(=O)CCl)cc1` [10-H04, N-{[4-(2-chloroacetyl)phenyl]methyl}-N-methylacetamide], the viability at 48 h, 25 µM stood at 64%. As to `C=CC(=O)NCC(=O)c1scc(C)c1Cl` [1-D16, N-[2-(3-chloro-4-methylthiophen-2-yl)-2-oxoethyl]prop-2-enamide], the viability at 48 h, 25 µM stood at 65.2%. To `CC1(C)C(=O)Nc2ccc(C(=O)CCl)cc21` [10-N21, 5-(2-chloroacetyl)-3,3-dimethyl-2,3-dihydro-1H-indol-2-one] belongs 73.1%; to `COc1ccc(C=C(C#N)C(=O)Nc2ccc(C)cc2)cc1O` [9-O12, 2-cyano-3-(3-hydroxy-4-methoxyphenyl)-N-(4-methylphenyl)prop-2-enamide], 109%. Turning to `N#CC(C(=O)CCl)=C1NC(=O)c2ccccc2N1` [10-P14, 4-chloro-3-oxo-2-(4-oxo-1,2,3,4-tetrahydroquinazolin-2-ylidene)butanenitrile], the viability at 48 h, 25 µM was 110%. To `N#CC(=Cc1ccco1)C(=O)NC1CC1` [8-N21, 2-cyano-N-cyclopropyl-3-(furan-2-yl)prop-2-enamide] belongs 112%.

Consider `N#CC(=Cc1cccc2c1OCO2)C(=O)Nc1cccc2ccccc12` [8-K12, 3-(1,3-dioxaindan-4-yl)-2-cyano-N-(naphthalen-1-yl)prop-2-enamide], for which the viability at 48 h, 25 µM came to 63.4%. Consider `N#CC(=Cc1c2ccccc2c(Cl)c2ccccc12)C(N)=O` [8-N12, 3-(10-chloroanthracen-9-yl)-2-cyanoprop-2-enamide], for which the viability at 48 h, 25 µM came out at 69.3%.

Take `COc1ccccc1NC(=O)C(C#N)=Cc1ccccc1F` [8-E11, 2-cyano-3-(2-fluorophenyl)-N-(2-methoxyphenyl)prop-2-enamide]: the viability at 48 h, 25 µM is 67.4%. With `N#CC(=Cc1ccc(F)cc1)C(=O)Nc1ccccc1C(F)(F)F` [8-I18, 2-cyano-3-(4-fluorophenyl)-N-[2-(trifluoromethyl)phenyl]prop-2-enamide], the viability at 48 h, 25 µM came to 81.7%. For the compound `O=C(CCl)NCc1ccccc1S(=O)(=O)N1CCOCC1` [4-F22, 2-chloro-N-{[2-(morpholine-4-sulfonyl)phenyl]methyl}acetamide], the viability at 48 h, 25 µM was 2.15%. For `Cc1ccc(C=C(C#N)C(=O)Nc2ccccc2Cl)s1` [9-C22, N-(2-chlorophenyl)-2-cyano-3-(5-methylthiophen-2-yl)prop-2-enamide], the viability at 48 h, 25 µM is 107%. As to `CNC(=O)c1ccc(O)c(NC(=O)CCl)c1` [5-C10, 3-(2-chloroacetamido)-4-hydroxy-N-methylbenzamide], the viability at 48 h, 25 µM worked out at 114%. The result for `COc1ccc(C(=O)C(C)Cl)c(OC)c1` (centres unmarked) [10-J17, 2-chloro-1-(2,4-dimethoxyphenyl)propan-1-one] reads 91.9%; that for `C=CC(=O)NCc1ccc(-n2ccc(C)n2)nc1` [3-H16, N-{[6-(3-methyl-1H-pyrazol-1-yl)pyridin-3-yl]methyl}prop-2-enamide], 99.7%. The result for `COCc1ncc2c(n1)CC1CCC2N1C(=O)C(C)Cl` (centres unmarked) [7-M20, 2-chloro-1-[5-(methoxymethyl)-4,6,12-triazatricyclo[7.2.1.0,2,7]dodeca-2,4,6-trien-12-yl]propan-1-one] reads 77%.
